Measured values published in the RepoRT retention time repository (doi:10.1021/acs.analchem.2c02893).

Assay: RP, Thermo Scientific Acclaim RSLC 120 C18, 100 × 2.1 mm, 2.2 µm, 30 °C, 0.2 mL/min, estimated dead time 1.1 min; A: 90% water + 10% methanol + 0.01% formic acid + 5 mM ammonium formate, pH 3.61; B: methanol + 0.01% formic acid + 5 mM ammonium formate, pH 3.61; gradient (min/%B) 0/1 1/1 2/39 13/99.9 15/99.9 15.1/1 20.1/1
Details: stereoisomer not certain

Row | Compound | LC retention time
1 | O=C(NC(=O)c1c(F)cccc1F)Nc1ccc(Cl)c(Oc2ncc(C(F)(F)F)cc2Cl)c1 [Fluazuron] | 12.7 min
2 | OC(CNCC(O)C1CCc2cc(F)ccc2O1)C1CCc2cc(F)ccc2O1 (stereo not given) [Nebivolol] | 8.28 min
3 | CC(N)C(=O)c1ccccc1 (stereo not given) [Cathinone] | 3.59 min
4 | CN(C)CC(CN1c2ccccc2Sc2ccccc21)N(C)C (stereo not given) [Promazine-amino] | 8.54 min
5 | CC(CC(c1ccccc1)c1ccccc1)NC(C)(C)C (stereo not given) [Terodiline] | 7.91 min
6 | NN1CC(=O)N2C(Cc3c([nH]c4ccccc34)C2c2ccc3c(c2)OCO3)C1=O (stereo not given) [Tadalafil-Amino] | 7.84 min
7 | CCCCn1cc(C(=O)c2cccc3ccccc23)c2ccc(O)cc21 [JWH-073-M-6-OH-Ind] | 10.6 min
8 | CCOC(=O)CC(SP(=S)(OC)OC)C(=O)OCC (stereo not given) [Malathion] | 9.59 min
9 | CC(=O)CC(c1ccc(Cl)cc1)c1c(O)c2ccccc2oc1=O (stereo not given) [Coumachlor] | 10.2 min
10 | C#CC1(O)CCC2C3CCC4=CC(=O)CCC4C3CCC21C (stereo not given) [Norethisterone] | 9.15 min
11 | COc1ccc2c(c1O)-c1c3c(cc4c1C(C2)N(C)CC4)OCO3 (stereo not given) [Bulbocapnine] | 4.36 min
12 | CS(=O)(=O)c1ccc(C(O)C(CF)NC(=O)C(Cl)Cl)cc1 (stereo not given) [Florfenicol] | 4.73 min
13 | COP(=S)(OC)Oc1ccc([N+](=O)[O-])c(Cl)c1 [Chlorthion] | 10.2 min
14 | CCCC(C(=O)OCCN(CC)CC)(c1ccccc1)c1ccccc1 [Proadifen] | 9.41 min
15 | CCc1cc(OC)c(CCN)cc1OC [2C-E] | 6.48 min
16 | CCNC(C)Cc1ccccc1 (stereo not given) [Amphetamine-N-Ethyl] | 4.4 min
17 | CCN1CC(CCN2CCOCC2)C(c2ccccc2)(c2ccccc2)C1=O (stereo not given) [Doxapram] | 6.23 min
18 | CCCc1nn(C)c2c(=O)[nH]c(-c3cc(S(=O)(=O)N4CCN(CCO)CC4)ccc3OCC)nc12 [Sildenafil-Hydroxyhomo] | 7.83 min
19 | CC12CCC(=O)C=C1CCC1C2C(=O)CC2(C)C(O)CCC12 (stereo not given) [11-Ketotestosterone] | 7.9 min
20 | CC1CCCC(C)N1CCCC(O)(c1ccccc1)c1ccccn1 (stereo not given) [Pirmenol] | 6.01 min
21 | CCOc1cc(NC(C)=O)ccc1C(=O)OC [Ethopabate] | 6.63 min
22 | CN(C)CCC=C1c2ccccc2CCc2ccccc21 [Amitriptyline] | 8.23 min

Row | Compound | LC retention time
23 | CCOP(=S)(OCC)Oc1cc(C)nc(N(CC)CC)n1 [Pirimiphos-ethyl] | 12.3 min
24 | O=c1c(-c2ccc(O)cc2)coc2cc(O)ccc12 [Daidzein] | 6.89 min
25 | CC(CN(C)C)CN1c2ccccc2Sc2ccc(C#N)cc21 (stereo not given) [Cyamemazine] | 7.52 min
26 | CNc1nc(C)c(C)c(OC(=O)N(C)C)n1 [Pirimicarb-desmethyl] | 5.89 min
27 | CC1(C)C(C(=O)c2cn(Cc3ccc(F)cc3)c3ccccc23)C1(C)C [FUB-144] | 12.2 min
28 | CCCCCCCCCCCCNC [N-Methyldodecylamine] | 10.5 min
29 | CCCCOc1ccc(C(=O)OCCN(CC)CC)cc1 [Butoxycaine] | 11.3 min
30 | COc1cc(C)c(C(=O)c2c(OC)ccc(Br)c2C)c(OC)c1OC [Metrafenone] | 11.4 min
31 | Nc1nc(=O)n(C2CSC(CO)O2)cc1F (stereo not given) [Emtricitabine] | 3.41 min
32 | NC(CO)C(=O)NNCc1ccc(O)c(O)c1O (stereo not given) [Benserazide] | 1.38 min
33 | CN1CCC23c4c5ccc(O)c4OC2C(O)CCC3C1C5 (stereo not given) [Morphine-Dihydro] | 2.66 min
34 | COc1ccccc1OCC(O)COC(N)=O (stereo not given) [Methocarbamol] | 5.21 min
35 | O=C(C1CCCCC1)N1CC(=O)N2CCc3ccccc3C2C1 (stereo not given) [Praziquantel] | 9.32 min
36 | CCCc1nn(C)c2c(=O)[nH]c(-c3cc(C(=O)CN4CCN(CC)CC4)ccc3OCC)nc12 [Acetildenafil] | 7.01 min
37 | NC(=O)N1c2ccccc2C=Cc2cc(O)ccc21 [2-Hydroxycarbamazepine] | 6.03 min
38 | CC(C)CC(C)Nc1ccc(Nc2ccccc2)cc1 (stereo not given) [Diphenylamin-4-(dimethylbutylamino) (6PPD)] | 9.92 min
39 | O=C(O)c1nc(Cl)ccc1Cl [Clopyralid] | 3.06 min
40 | CC#CCn1c(N2CCCC(N)C2)nc2c1c(=O)n(Cc1nc(C)c3ccccc3n1)c(=O)n2C (stereo not given) [Linagliptin] | 6.01 min
41 | O=C(c1ccc(F)c2ccccc12)c1cn(CCCCCF)c2ccccc12 [JWH-412-5F. F2201] | 11.6 min
42 | O=[N+]([O-])/N=C1\NCCN1Cc1ccc(Cl)nc1 [Imidacloprid] | 4.76 min
43 | CCCCOC(=O)C(C)Oc1ccc(Oc2ccc(C(F)(F)F)cn2)cc1 (stereo not given) [Fluazifop-p-butyl] | 12 min
44 | CCC1OC(=O)CC(O)C(C)C(OC2OC(C)C(O)C(N(C)C)C2O)C(CCN2CC(C)CC(C)C2)CC(C)C(=O)C=CC(C)=CC1COC1OC(C)C(O)C(OC)C1OC (stereo not given) [Tilmicosin] | 6.69 min

Row | Compound | LC retention time
45 | CCCN(CCC)C(=O)SCc1ccccc1 [Prosulfocarb] | 11.9 min
46 | CC(=O)N(C)N(C(=O)C(=O)N(C)C)c1ccccc1 [AMDOPH] | 5.06 min
47 | CC(NC(C)(C)C)C(=O)c1cccc(Cl)c1 (stereo not given) [Bupropion] | 5.76 min
48 | CCN(CC)CCOCCOC(=O)C1(c2ccccc2)CCCC1 [Pentoxyverine] | 7.87 min
49 | CN1CCC23c4c5ccc(O)c4OC2C(=O)CCC3(O)C1C5 (stereo not given) [Oxymorphone] | 2.75 min
50 | O=C1CN=C(c2ccccn2)c2cc(Br)ccc2N1 [Bromazepam] | 7.28 min
51 | CCNc1nc(NC(C)(C)C)nc(SC)n1 [Terbutryn] | 10.2 min
52 | Cc1nc2n(c(=O)c1CCN1CCC(c3noc4cc(F)ccc34)CC1)CCCC2 [Risperidone] | 5.88 min
53 | CCC(C)C1OC2(C=CC1C)CC1CC(CC=C(C)C(OC3CC(OC)C(OC4CC(OC)C(O)C(C)O4)C(C)O3)C(C)C=CC=C3COC4C(O)C(C)=CC(C(=O)O1)C34O)O2 (stereo not given) [AvermectinB1a (Abamectin)] | 13.6 min
54 | Cc1nc([N+](=O)[O-])cn1CCO [Metronidazole] | 3.58 min
55 | CCCCNc1ccc(C(=O)OCCN(C)C)cc1 [Tetracaine] | 6.43 min
56 | CCOP(=S)(OCC)Oc1ccc2c(C)c(Cl)c(=O)oc2c1 [Coumaphos] | 11.2 min
57 | NS(=O)(=O)c1cc(C2(O)NC(=O)c3ccccc32)ccc1Cl (stereo not given) [Chlorthalidone] | 5.06 min
58 | N#CCCCCn1cc(C(=O)c2cccc3ccccc23)c2ccccc21 [AM-2232] | 9.69 min
59 | CCC(N)Cc1ccc2c(c1)OCO2 (stereo not given) [BDB] | 4.73 min
60 | O=C1CN(N=Cc2ccc([N+](=O)[O-])o2)C(=O)N1 [Nitrofurantoin] | 4.14 min
61 | Cc1cc(C)cc(OCC2CNC(=O)O2)c1 (stereo not given) [Metaxalone] | 7.86 min
62 | Cc1ccc(Cl)c(OCC(O)CNC(C)(C)C)c1 (stereo not given) [Bupranolol] | 7.07 min
63 | CCCCOC(=O)c1ccccc1C(=O)OCCCC [Phthalate-Di-n-butyl] | 12 min
64 | CC(C)CN(CC(O)C(Cc1ccccc1)NC(=O)OC1COC2OCCC12)S(=O)(=O)c1ccc(N)cc1 (stereo not given) [Darunavir] | 8.21 min
65 | C=CCN(CC=C)C(=O)C(Cl)Cl [Dichlormid] | 7.18 min
66 | NC1CCC(c2ccc(Cl)c(Cl)c2)c2ccccc21 (stereo not given) [Sertraline-Desmethyl] | 9.02 min

Row | Compound | LC retention time
67 | CCN(CC)CC(=O)Nc1c(C)cccc1C(=O)OC [Tolycaine] | 4.59 min
68 | Cc1cnc(C(=O)NCCc2ccc(S(=O)(=O)NC(=O)NC3CCCCC3)cc2)cn1 [Glipizide] | 8.11 min
69 | CCCCCCCCn1sc(Cl)c(Cl)c1=O [4-5-Dichloro-2-n-octyl-isothiazol-3(2H)-on (DCOIT)] | 12.5 min
70 | CN(C)CCCC1(c2ccc(F)cc2)OCc2cc(C(=O)O)ccc21 (stereo not given) [Citalopram carboxylic acid] | 5.83 min
71 | CN1CCCC1=O [N-Methyl-2-pyrrolidone] | 3.1 min
72 | CSC(C)=NOC(=O)N(C)SN(C)C(=O)ON=C(C)SC [Thiodicarb] | 7.64 min
73 | CSc1nc(NC(C)C)nc(NC(C)C)n1 [Prometryn] | 10.1 min
74 | COc1ccc(C(=CC(=O)N2CCOCC2)c2ccc(Cl)cc2)cc1OC [Dimethomorph] | 9.22 min
75 | Cc1c(N)c(=O)n(-c2ccccc2)n1C [Antipyrine-4-Amino (4-AAP)] | 4.69 min
76 | COC(=O)C(Cc1ccccc1)NC(=O)C(CC(=O)O)NCCC(C)(C)C (stereo not given) [Neotam] | 8.83 min
77 | CC(C)N(C(=O)C(=O)O)c1ccc(F)cc1 [Flufenacet-OXA] | 5.49 min
78 | CCNc1nc(Cl)nc(NC(C)(C)C)n1 [Terbuthylazine] | 9.36 min
79 | Cc1cnc(NC(=O)C2=C(O)c3ccccc3S(=O)(=O)N2C)s1 [Meloxicam] | 7.09 min
80 | C=C(c1ccc(C(=O)O)cc1)c1cc2c(cc1C)C(C)(C)CCC2(C)C [Bexarotene] | 14.1 min
81 | CCOCCN(C(=O)CCl)C(=C(C)C)c1ccccc1 [Pethoxamide] | 10.1 min
82 | CCN(C(=O)SCc1ccccc1)C(C)C(C)C (stereo not given) [Esprocarb] | 12.2 min
83 | CCOC(=O)c1ncn2c1CN(C)C(=O)c1cc(F)ccc1-2 [Flumazenil] | 6.04 min
84 | CCNc1nc(NCC)nc(SC)n1 [Simetryn] | 8.14 min
85 | O=C(O)c1cn(-c2ccc(F)cc2)c2cc(N3CCNCC3)c(F)cc2c1=O [Sarafloxacin] | 4.83 min
